The conditions of this data set: for viscosity / mass density: 101 kPa, Liquid; for mass density: Vibrating tube method.

Numbers after ± are expanded uncertainties.

Take `COP(=O)([O-])OC.Cn1cc[n+](C)c1` [1,3-dimethylimidazolium dimethylphosphate]: the surface tension liquid-gas (as a rule, the force per length acting along the surface) is given as 47.78 ± 1.5 mN/m (293.15 K); 46.98 ± 1.5 mN/m (298.15 K); 46.21 ± 1.4 mN/m (303.15 K); 44.89 ± 1.4 mN/m (313.15 K); 42.67 ± 1.4 mN/m (323.15 K); 41.99 ± 1.3 mN/m (333.15 K). In addition, the viscosity (commonly the resistance of a fluid to flow) by setting is: (293.15 K) 381.22 ± 65 mPa·s; (298.15 K) 336.74 ± 56 mPa·s; (303.15 K) 221.41 ± 34 mPa·s; (313.15 K) 178.66 ± 26 mPa·s; (323.15 K) 147.95 ± 21 mPa·s; (333.15 K) 133.73 ± 19 mPa·s. Besides, the mass density (usually the mass of a sample divided by its volume) runs as follows: (293.15 K) 1254 ± 9 kg/m3; (298.15 K) 1250 ± 9 kg/m3; (303.15 K) 1247 ± 9 kg/m3; (313.15 K) 1240 ± 9 kg/m3; (323.15 K) 1233 ± 9 kg/m3; (333.15 K) 1230 ± 8 kg/m3.

On to `CCOP(=O)([O-])OCC.CCn1cc[n+](C)c1` [1-ethyl-3-methylimidazolium diethyl phosphate], for which the surface tension liquid-gas (293.15 K) worked out at 34.78 ± 1.3 mN/m; the surface tension liquid-gas (298.15 K) was found to be 34.46 ± 1.3 mN/m; the surface tension liquid-gas (303.15 K) is 34.19 ± 1.2 mN/m; the surface tension liquid-gas (313.15 K) came out at 33.54 ± 1.2 mN/m; the surface tension liquid-gas (323.15 K) was found to be 33.15 ± 1.2 mN/m; the surface tension liquid-gas (333.15 K) is on record as 32.81 ± 1.2 mN/m. Moreover, the viscosity is listed as 537.03 ± 99 mPa·s (293.15 K); 320.89 ± 53 mPa·s (298.15 K); 284.34 ± 46 mPa·s (303.15 K); 150.96 ± 22 mPa·s (313.15 K); 90.02 ± 12 mPa·s (323.15 K); 58.02 ± 7.5 mPa·s (333.15 K). Besides, the mass density is on record as 1151 ± 10 kg/m3 (293.15 K); 1146 ± 9 kg/m3 (298.15 K); 1141 ± 9 kg/m3 (303.15 K); 1130 ± 9 kg/m3 (313.15 K); 1116 ± 9 kg/m3 (323.15 K); 1103 ± 9 kg/m3 (333.15 K).

As to `CCCO` [propan-1-ol], the surface tension liquid-gas was 23.67 ± 0.72 mN/m (293.15 K); 23.31 ± 0.72 mN/m (298.15 K); 22.81 ± 0.7 mN/m (303.15 K); 22.19 ± 0.69 mN/m (313.15 K); 21.34 ± 0.67 mN/m (323.15 K); 20.66 ± 0.65 mN/m (333.15 K). For the same compound, the viscosity runs as follows: (293.15 K) 2.2 ± 0.28 mPa·s; (298.15 K) 1.99 ± 0.26 mPa·s; (303.15 K) 1.73 ± 0.22 mPa·s; (313.15 K) 1.38 ± 0.18 mPa·s; (323.15 K) 1.12 ± 0.15 mPa·s; (333.15 K) 0.91 ± 0.12 mPa·s. For the same compound, the mass density stood at 804 ± 5 kg/m3 (293.15 K); 800.1 ± 5.1 kg/m3 (298.15 K); 796 ± 5 kg/m3 (303.15 K); 788 ± 5 kg/m3 (313.15 K); 780 ± 5 kg/m3 (323.15 K).

Turning to `CC(C)O` [propan-2-ol], the surface tension liquid-gas by setting is: (293.15 K) 21.28 ± 0.67 mN/m; (298.15 K) 20.94 ± 0.66 mN/m; (303.15 K) 20.54 ± 0.65 mN/m; (313.15 K) 19.97 ± 0.64 mN/m; (323.15 K) 18.87 ± 0.61 mN/m; (333.15 K) 18.11 ± 0.59 mN/m. The viscosity was 2.41 ± 0.31 mPa·s (293.15 K); 2.06 ± 0.27 mPa·s (298.15 K); 1.79 ± 0.23 mPa·s (303.15 K); 1.35 ± 0.17 mPa·s (313.15 K); 1.03 ± 0.13 mPa·s (323.15 K); 0.82 ± 0.11 mPa·s (333.15 K). Moreover, the mass density reads like this: (293.15 K) 786 ± 5 kg/m3; (298.15 K) 781 ± 5 kg/m3; (303.15 K) 777 ± 5 kg/m3; (313.15 K) 768 ± 5 kg/m3; (323.15 K) 759 ± 5 kg/m3; (333.15 K) 750 ± 5 kg/m3.

(Values after the NIST ThermoML archive (doi:10.1021/je400576e).)
